Where two headings read alike, the source gives them in different places.
Assays:
vaccinia virus = test: microbe, parasite or virus in culture; format: cell-based; settings: read-out: Vaccinia Plaque Reduction (IC50)
[1] = Intestinal absorption after direct duodenal injection in anesthetized rats, plasma by LC/MS/MS; settings: for AUC0-4 hr of Prodrug: rat plasma, duodenal injection of the named prodrug
Procedure: The systemic plasma profiles of the prodrug, Ara A, and its main metabolite, Ara H are then monitored by removing plasma from a jugular vein cannula over a 4 hour period and assaying by LC/MS/MS assay.
Animals were dosed with Ara A at a level of 1.5 mg/rat via direct duodenal injection into anesthetized rats (n=2 per compound). Plasma samples were taken from the jugular vein at 0, 1, 2, and 4 hours from the jugular vein and were assayed for Ara A (▪), and Ara H (♦) by LC/MS/MS.
Animals were dosed with 5′-O-L isoleucyl Ara A prodrug at a level of 2.7 mg/rat via direct duodenal injection into anesthetized rats (n=3 per compound). Plasma samples were taken from the jugular vein at 0, 0.5, 1, 2, and 4 hours from the jugular vein and were assayed for prodrug (□), Ara A (▪), and Ara H (♦) by LC/MS/MS.
(§1) FIG. 6 is a graph showing mean plasma profiles of Ara A, Ara H, and 5′-O-D Isoleucyl Ara A after administration of 5′-O-D Isoleucyl Ara A into the duodenum of a rat. Animals were dosed with 5′-O-D Isoleucyl Ara A prodrug at a level of 2.7 mg/rat via direct duodenal injection into anesthetized rats (n=2). Plasma samples were taken from the jugular vein at 0, 0.5, 1, 2, and 4 hours from the jugular vein and were assayed for prodrug (□), Ara A (▪), and Ara H (♦) by LC/MS/MS.
as §1, with “7” for “6”, “5′-O-L Valyl” for “5′-O-D Isoleucyl”, “3” for “2.7”
as §1, with “FIG. 8” for “FIG. 6”, “5′-O-D Valyl” for “5′-O-D Isoleucyl”, “of 3.0” for “of 2.7”, “rats (n=3).” for “rats (n=2).”, “and ara” for “and Ara”
as §1, with “9” for “6”, “5′-O-Glycyl” for “5′-O-D Isoleucyl”, “3.0” for “2.7”

KB cell [2] = test: KB cell cytotoxicity; settings: read-out: KB cell cytotoxicity (IC50)
[3] = molecular target: T1, human dipeptide transporter, hPept1 (Homo sapiens, UniProt P46059); settings: for HeLa/hPEPT1 uptake: pH 6
T1 sequence (P46059 1-708): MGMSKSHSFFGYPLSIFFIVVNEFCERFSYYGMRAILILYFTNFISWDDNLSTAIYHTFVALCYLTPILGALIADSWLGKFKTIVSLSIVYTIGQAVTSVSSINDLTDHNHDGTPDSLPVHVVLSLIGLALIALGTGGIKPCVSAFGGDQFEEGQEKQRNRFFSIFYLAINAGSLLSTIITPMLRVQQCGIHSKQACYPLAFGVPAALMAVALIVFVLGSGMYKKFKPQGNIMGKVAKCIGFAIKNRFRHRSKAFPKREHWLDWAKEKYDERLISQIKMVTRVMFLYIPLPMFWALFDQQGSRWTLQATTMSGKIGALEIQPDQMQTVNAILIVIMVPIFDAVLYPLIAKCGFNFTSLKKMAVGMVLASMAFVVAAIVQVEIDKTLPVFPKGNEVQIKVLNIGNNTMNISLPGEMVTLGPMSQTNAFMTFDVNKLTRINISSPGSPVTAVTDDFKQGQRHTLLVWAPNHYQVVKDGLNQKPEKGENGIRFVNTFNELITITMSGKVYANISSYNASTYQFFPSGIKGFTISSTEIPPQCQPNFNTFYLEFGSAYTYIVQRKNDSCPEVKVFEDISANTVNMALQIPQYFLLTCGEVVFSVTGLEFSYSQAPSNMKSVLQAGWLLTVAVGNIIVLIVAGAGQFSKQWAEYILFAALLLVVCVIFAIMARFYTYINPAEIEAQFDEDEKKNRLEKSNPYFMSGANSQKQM

KB cell [4] = tested on: KB cell
[5] = buffer
[6] = Caco-2 cell homogenates, n = 3
Caco-2 monolayers = test: Caco-2 monolayer transport and stability; format: in vitro ADME; settings: for Permeability: apical to basolateral, 0.2 mM drug, apical pH 6.0, n = 3; for Stability (% remaining) Apical chamber (donor): percent prodrug remaining in donor solution at 120 minutes; for Stability (% remaining) Basolateral chamber (receiver): percent prodrug remaining in receiver solution at 120 minutes
Procedure: (§2) The transepithelial transport of Ara A, 5′-O-L-valyl Ara A, 5′-O-L-isoleucyl Ara A is tested in Caco-2 monolayers grown in transwell filters following standard procedures as described in detail in Landowski, C. P. et al., Pharm Res, 2005. 22(9): p. 1510-8. In these experiments, transport studies are performed 21 days post-seeding. The assay is initiated by adding drug transport solution (0.2 mM drug in MES buffer, pH 6.0 containing 5 mM D-glucose, 5 mM MES, 1 mM CaCl2, 1 mM MgCl2, 150 mM NaCl, 3 mM KCl, 1 mM NaH2PO4) to the apical chamber of the Caco-2 insert. Two hundred microliter aliquots are withdrawn from the basolateral chamber at predetermined intervals and replaced with fresh HEPES pH 7.4 buffer. The epithelial integrity of representative cell monolayers is assessed by monitoring transepithelial resistance. In these assays, the stability of the drug in both chambers of the insert is also monitored. […] Importantly, the prodrugs are stable, showing minimal metabolism to Ara A and Ara-H over a 2-hour time frame.

Cowpox = test: organism not typed; format: cell-based; settings: read-out: Cowpox Plaque Reduction (IC50)
KB cell cytotoxicity = settings: human, KB cells
adenosine deaminase = test: Stability in the presence of adenosine deaminase; format: biochemical; settings: FIG. 3A
[7] = Caco-2 monolayer transport and stability; format: in vitro ADME; settings: human, Caco-2, pH 6
Procedure: as §2

[8] = Solubility testing in water; format: physicochemical; settings: thermodynamic from solid; water added dropwise to 5 mg
Procedure: Water is added dropwise to 5 mg of each prodrug with intermittent stirring until the drug is fully dissolved. All of the Ara A prodrugs dissolved prior to the addition of 0.19 ml of water or at a concentration>26 mg/ml water. In contrast, unmodified Ara A is poorly soluble (<0.5 mg/ml) under these conditions.

[9] = Orthopoxvirus vaccinia, HFF, 72 h

Structure (SMILES)	IC50 (vaccinia virus; HFF cells, 3 days) [µM]	plasma Ara A levels after dosing (in words) ([1]; rat, duodenal injection)	IC50 (KB cell [2]) [µM]	hPepT1/Control [3]	HeLa/hPEPT1 uptake [3]	t1/2 Caco-2 [6] [min]	also measured
NCC(=O)OC[C@H]1O[C@@H](n2cnc3c(N)ncnc32)[C@@H](O)[C@@H]1O [5′-O-glycyl Ara A]	15	relatively low plasma levels	> 100				prodrug absorption / prodrug concentrations in systemic plasma (in words) ([1]; rat, duodenal injection): limited intestinal absorption of the prodrug
Nc1ncnc2c1ncn2[C@@H]1O[C@H](COC(=O)[C@@H](N)CC(=O)O)[C@@H](O)[C@@H]1O [5′-O-L-aspartyl Ara A]	7		60	1.27	5.0 ± 0.2		
Nc1ncnc2c1ncn2[C@@H]1O[C@H](COC(=O)[C@@H]2CCCN2)[C@@H](O)[C@@H]1O [5′-O-L-prolyl Ara A]	12			1.06	40.8 ± 1.0	1.3 ± 0.005	IC50 (KB cell [4]): 45 µM; t1/2 pH 7.4 [5]: 20.1 ± 1.0 min
Nc1ncnc2c1ncn2[C@@H]1O[C@H](COC(=O)[C@@H](N)Cc2ccccc2)[C@@H](O)[C@@H]1O [5′-O-L-phenylalanyl Ara A]	20					3.5 ± 1.0	IC50 (KB cell [4]): > 100 µM; t1/2 pH 7.4 [5]: 420.9 ± 40.1 min
CC[C@H](C)[C@H](N)C(=O)OC[C@H]1O[C@@H](n2cnc3c(N)ncnc32)[C@@H](O)[C@@H]1O [5′-O-L-isoleucyl Ara A]	4.5		> 100	26.9	202.0 ± 4.8	27.0 ± 1.3	Permeability (Caco-2 monolayers): 5.66 ± 0.14 ×10^−6, cm/s; Stability (% remaining) Apical chamber (donor) (Caco-2 monolayers): 89.6%; Stability (% remaining) Basolateral chamber (receiver) (Caco-2 monolayers): 77.5%; AUC0-4 hr of Prodrug [1]: 658 ± 314 ng·h/mL; fold increase in circulating Ara A levels over dosing with Ara A ([1]; rat, duodenal injection): > 20 fold; percent of total drug measured in plasma found to be Ara-H ([1]; rat, in vivo): ~15%; percent of total drug measured in plasma present as Ara A ([1]; rat, in vivo): approximately 17%; percent of total drug measured in plasma present as prodrug ([1]; rat, in vivo): ~68%
CC(C)[C@@H](N)C(=O)OC[C@H]1O[C@@H](n2cnc3c(N)ncnc32)[C@@H](O)[C@@H]1O [5′-O-D-valyl Ara A]	3.5	Increased levels of plasma Ara A	> 100				AUC0-4 hr of Prodrug [1]: 637 ± 74 ng·h/mL; prodrug absorption / prodrug concentrations in systemic plasma (in words) ([1]; rat, duodenal injection): extended and enhanced concentrations of the prodrug in systemic plasma
Nc1ccn(C[C@@H](CO)OCP(=O)(O)O)c(=O)n1 [Cidofovir, reference compound]							IC50 (vaccinia virus; [9]): 26 µM; IC50 (Cowpox): 30 µM; IC50 (KB cell cytotoxicity): > 100 µM
CC(C)[C@H](N)C(=O)OC[C@H]1O[C@@H](n2cnc3c(N)ncnc32)[C@@H](O)[C@@H]1O [5′-O-L-valyl Ara A]	12	Increased levels of plasma Ara A	65	20.7	80.3 ± 1.1	11.1 ± 0.4	Permeability (Caco-2 monolayers): 3.86 ± 0.03 ×10^−6, cm/s; Stability (% remaining) Apical chamber (donor) (Caco-2 monolayers): 82.1%; Stability (% remaining) Basolateral chamber (receiver) (Caco-2 monolayers): 62.0%; AUC0-4 hr of Prodrug [1]: 195 ± 25 ng·h/mL
CC[C@@H](C)[C@@H](N)C(=O)OC[C@H]1O[C@@H](n2cnc3c(N)ncnc32)[C@@H](O)[C@@H]1O [5′-O-D-isoleucyl Ara A]	3	increased levels of plasma Ara A	> 100				
O=c1[nH]cnc2c1ncn2[C@@H]1O[C@H](CO)[C@@H](O)[C@@H]1O [Ara-H, 9-(beta-D-arabinofuranosyl) hypoxanthine]							IC50 (Cowpox): > 100 µM
Nc1ncnc2c1ncn2[C@@H]1O[C@H](CO)[C@@H](O)[C@@H]1O [Ara A, Adenine 9-beta-D-arabinofuranoside, reference compound]							IC50 (vaccinia virus; [9]): 5 µM; IC50 (Cowpox): 6.5 µM; deamination by adenosine deaminase (in words) (adenosine deaminase): rapidly hydrolyzed; Papp A→B at 2 h, 0.2 mM [7]: 1.42 ± 0.05 ×10⁻⁶ cm/s; solubility [8]: < 500 µg/mL; IC50 (KB cell cytotoxicity): > 100 µM

Source: patent US20070167353A1, “PRODRUG COMPOSITION” (priority 2003, published 2007)
